From patent US12527870B2, “Peptide hydrogels for delivery of immunosuppressive drugs and uses thereof” (THE JOHNS HOPKINS UNIVERSITY, priority 2018, dated 2026)
Structures can show the parent of a compound that is named as a salt.

Assays:
Format in all cases: physicochemical
[1] = Crystallization of drug within peptide hydrogel (phase-contrast, confocal, polarized light microscopy)
Experimental: During hydrogel-mediated encapsulation, when used at a loading concentration of 16 mM, tofacitinib free base initially produced an opaque suspension that turned into a transparent hydrogel as the drug dissolved in the self-assembled peptide matrix at 37° C. during the first 2-3 hours. […] Approximately 10 μL of the hydrogel was then placed on a glass slide and covered with a cover slip. Phase-contrast microscopy (EVOS FL Cell Imaging System) and confocal microscopy (LSM 710) were used to characterize the drug aggregates suspended in the hydrogel matrix. Crystallinity of the aggregates was verified from polarized light microscopy at low and high magnification.
Shown in FIGS. 2A-2C are phase contrast images of tofacitinib free base encapsulated within MAX8 peptide hydrogel at the drug concentrations of 16 mM (FIG. 2A), 1.6 mM (FIG. 2B) and blank MAX8 peptide hydrogel (FIG. 2C). Shown in FIGS. 2D-2E are confocal microscopy-generated differential interference contrast images of tofacitinib free base microcrystals dispersed in MAX8 peptide gel network at a drug concentration of 16 mM.

[2] = Ex vivo drug release from peptide hydrogel into buffer
From the text: FIGS. 1A-1D: Release profiles of tofacitinib from peptide hydrogels. (FIG. 1A) Sustained release profile of tofacitinib free base vs burst release of tofacitinib citrate salt from MAX8 peptide hydrogel at early time points. (FIG. 1B) Release profiles of tofacitinib free base and citrate at longer time duration. (FIG. 1C) Variation of release profiles of tofacitinib free base based on the initial amount of drug loading. (FIG. 1D) Release profiles of tofacitinib free base from MAX1 and HLT2 peptide hydrogels. Concentration of tofacitinib free base was 16 mM. In each case, release of the drug was monitored from the hydrogel into an infinite sink (25 mM HEPES, 150 mM NaCl, pH 7.4) at 37° C. Lines are included for visual guidance.
A MAX8 peptide stock solution was prepared in glass vials by dissolving 1 mg of peptide in 50 μL of chilled sterile water. Tofacitinib free base and tofacitinib citrate (purchased from LC Laboratories, Woburn, MA) stock solutions were prepared in spectrophotometric grade DMSO with final concentrations of 100 μg/μL and 160 μg/μL, respectively. Concentration of the stock solution was determined in such a way that would maintain equal ratio of DMSO to HEPES buffered saline (HBS) (v/v) while loading equimolar concentration of tofacitinib free base and citrate into the hydrogel. Required volume of drug stock solution was added into a chilled solution of HBS (2X HBS, 50 mM HEPES, 300 mM NaCl, pH 7.4) to make the final volume as 50 μL. At this point, care was taken to avoid mixing before the peptide stock solution had been transferred to the resulting suspension. Peptide solution was added and samples were then mixed to initiate hydrogelation, resulting in a 1.0 wt % gel of a final total volume of 100 μL containing required amount of loaded drug. Tofacitinib free base was loaded to the final concentrations of 1.6, 3.2 and 16 mM. For tofacitinib citrate salt, only hydrogels with a final concentration of 16 mM loaded drug were considered for drug release studies. Samples were placed in an incubator at 37° C. for 24 hours. After 24 hours, 1 mL of 1X HBS (25 mM HEPES, 150 mM NaCl, pH 7.4) was added to the top of gel. At scheduled time points, the entire volume of buffer above the gel was removed and replaced with fresh buffer. Drug concentration was determined for each removed aliquot as a function of time by measuring absorbance at 290 nm in a UV-VIS spectrophotometer (Agilent 8453) with a standard curve constructed under similar conditions.

[3] = Release profile from MAX8 hydrogel with varying DMSO volume ratio; settings: 16 mM, DMSO 2-30% by volume
Experimental: FIGS. 6A-6B: Release profile of tofacitinib from MAX8 hydrogel. (FIG. 6A) Cumulative release profiles of tofacitinib (free base) from MAX8 hydrogel containing different volume ratios of DMSO versus hydrogel. In each case, the tofacitinib stock solution was prepared in DMSO and an increasing volume of the DMSO stock was added while constituting the hydrogel. The total concentration of loaded tofacitinib was constant at 16 mM. Release profile of the drug was monitored from the hydrogel into buffer (25 mM HEPES, 150 mM NaCl, pH 7.4) at 37° C. (FIG. 6B) Release rate of tofacitinib from MAX8 hydrogel containing varying volumes of DMSO during the first 4 hours.
In each case, the tofacitinib stock solution was prepared in DMSO and an increasing volume of the DMSO stock was added while constituting the hydrogel. The total concentration of loaded tofacitinib was constant at 16 mM. The release profile of the drug was monitored from the hydrogel into buffer (25 mM HEPES, 150 mM NaCl, pH 7.4) at 37° C.

[4] = MAX8 hydrogel, 16 mM loading, 37° C.
[5] = MAX8 hydrogel, 16 mM loading, HBS pH 7.4, 37° C.

Row | Compound | crystallization within MAX8 hydrogel [1, 4] | release profile from MAX8 hydrogel, free base vs citrate [2, 5] | effect of decreasing the DMSO concentration on solubility [3] | crystallization within HLT2 hydrogel ([1]; HLT2 hydrogel, 16 mM loading) | crystallization within MAX1 hydrogel ([1]; MAX1 hydrogel, 16 mM loading) | loading concentration needed for crystallization ([1]; MAX8 hydrogel) | time of in situ crystallization after dissolution ([1]; MAX8 hydrogel, 16 mM, 37° C., after the first 2-3 hours) [h] | crystallization within MAX8 hydrogel below 16 mM ([1]; MAX8 hydrogel, loading concentration below 16 mM) | period to show similar cumulative release (over 75%) ([2]; MAX8 hydrogel, 16 mM loading, crystallized state, HBS pH 7.4, 37° C.) [days] | release profile at lower loading compared to 16 mM ([2]; MAX8 hydrogel, 0.48, 1.6 and 3.2 mM loading) | drug released within the first 10 hours ([2]; MAX8 hydrogel, loading 0.48 to 3.2 mM, soluble (not crystallized) drug, into 25 mM HEPES, 150 mM NaCl, pH 7.4, 37° C.)
1 | C[C@@H]1CCN(C(=O)CC#N)C[C@@H]1N(C)c1ncnc2[nH]ccc12 [tofacitinib citrate] | did not crystallize | released faster |  |  |  |  |  |  |  |  | 
2 | C[C@@H]1CCN(C(=O)CC#N)C[C@@H]1N(C)c1ncnc2[nH]ccc12 [tofacitinib free base, 3-((3R,4R)-4-methyl-3-(methyl (7H-pyrrolo[2,3-d]pyrimidin-4-yl)amino)piperidin-1-yl)-3-oxopropanenitrile] | gradually crystallized in situ | slower, more sustained release | reduces the solubility | crystallized | crystallized | above 3.2 mM | ~20 | no visible indication of crystallization | 6 | more rapid release | over 75%
